Results as given in ChEMBL document CHEMBL1201862, “PubChem BioAssay data set” (2004).
Activity calls are given as the source filed them.

What was measured:
SUMO-activating enzyme [1] = target: T1, SUMO-activating enzyme (Homo sapiens, UniProt Q9UBT2); assay: SUMOylation inhibitor hit validation, confirmation, SUMOylation inhibitor project, biochemical, AlphaScreen (AID 2018); type: functional
[2] = HIV-1 Env-mediated cell fusion inhibitors, dose response, CCR5-tropic Env (AID 2279); type: functional
SUMO-activating enzyme [3] = target: T1, SUMO-activating enzyme; assay: inhibitors of in vitro SUMOylation cascade, primary screen, biochemical, HTRF, uHTS (AID 2006); type: protein-complex assay
[4] = target: T2, Corticotropin-releasing factor receptor 2/Corticotropin-releasing factor-binding protein (Homo sapiens, UniProt P24387+Q13324); assay: Dose Response confirmation of uHTS hits for small molecule antagonists of the CRF-binding protein and CRF-R2 receptor complex.; type: functional; settings: read-out: IC50_Mean
T2 sequence (Q13324 whole entry): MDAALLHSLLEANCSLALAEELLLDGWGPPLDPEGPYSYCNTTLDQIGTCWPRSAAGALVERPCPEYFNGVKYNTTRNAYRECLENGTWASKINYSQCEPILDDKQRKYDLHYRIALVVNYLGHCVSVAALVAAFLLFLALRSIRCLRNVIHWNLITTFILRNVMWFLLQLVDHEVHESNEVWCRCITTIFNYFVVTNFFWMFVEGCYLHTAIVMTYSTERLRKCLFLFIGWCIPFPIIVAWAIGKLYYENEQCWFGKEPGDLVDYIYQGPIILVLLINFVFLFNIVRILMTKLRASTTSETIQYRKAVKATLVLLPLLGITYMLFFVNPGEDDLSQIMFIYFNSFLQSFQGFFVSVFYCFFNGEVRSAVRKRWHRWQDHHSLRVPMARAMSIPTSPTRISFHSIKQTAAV
T2 sequence (P24387 whole entry): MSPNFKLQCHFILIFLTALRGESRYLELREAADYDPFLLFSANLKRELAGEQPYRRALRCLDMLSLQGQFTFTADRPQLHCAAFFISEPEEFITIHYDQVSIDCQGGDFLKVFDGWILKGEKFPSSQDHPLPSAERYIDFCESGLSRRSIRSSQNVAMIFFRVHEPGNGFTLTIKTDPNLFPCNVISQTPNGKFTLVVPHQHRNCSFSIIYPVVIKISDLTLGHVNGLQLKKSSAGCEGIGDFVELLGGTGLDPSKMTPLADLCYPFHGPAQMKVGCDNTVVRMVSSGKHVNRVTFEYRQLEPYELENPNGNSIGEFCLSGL

[5] = target: FAD-linked sulfhydryl oxidase ALR (Homo sapiens, UniProt P55789); assay: inhibitors of human ALR sulfhydryl oxidase, dose response, biochemical, H2O2 detection, luminescence, cherry-pick (AID 493248)
[6] = target: T2, Corticotropin-releasing factor receptor 2/Corticotropin-releasing factor-binding protein; assay: activators of CRF receptor 2 with binding protein – uHTS hits, confirmation (AID 602473); type: functional; settings: read-out: EC50_Mean
[7] = target: T3, Long-chain-fatty-acid--AMP ligase FadD28 (Mycobacterium tuberculosis, UniProt P9WQ59); assay: Fluorescence polarization aasay to screen for inhibitors that compete for the binding of FadD28 to a bisubstrate Measured in Biochemical System Using Plate Reader - 2147-01_Inhibitor_Dose_CherryPick_Activity.; type: functional, Mycobacterium tuberculosis H37Rv
T3 sequence (P9WQ59 whole entry): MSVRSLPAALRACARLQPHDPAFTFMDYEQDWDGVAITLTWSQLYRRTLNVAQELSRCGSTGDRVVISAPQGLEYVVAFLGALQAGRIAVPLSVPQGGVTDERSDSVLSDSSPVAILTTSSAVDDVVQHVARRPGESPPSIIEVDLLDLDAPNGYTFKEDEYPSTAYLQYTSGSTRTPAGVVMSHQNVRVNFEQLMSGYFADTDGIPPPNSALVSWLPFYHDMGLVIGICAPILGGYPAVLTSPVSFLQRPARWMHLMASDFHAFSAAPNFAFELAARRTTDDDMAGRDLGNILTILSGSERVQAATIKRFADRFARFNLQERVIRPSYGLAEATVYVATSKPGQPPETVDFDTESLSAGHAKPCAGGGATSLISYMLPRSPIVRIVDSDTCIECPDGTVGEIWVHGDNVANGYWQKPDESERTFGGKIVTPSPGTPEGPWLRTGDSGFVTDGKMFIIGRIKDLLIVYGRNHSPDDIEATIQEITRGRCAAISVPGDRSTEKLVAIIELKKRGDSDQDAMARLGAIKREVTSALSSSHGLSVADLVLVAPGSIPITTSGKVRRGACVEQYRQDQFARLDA

[8] = CRF-BP/CRF-R2 complex antagonists, dose response, cell-based, uHTS hits, 384-well (AID 651639); type: functional, Homo sapiens; settings: read-out: IC50_Mean
Bcl-2-related protein A1 = target: T4, Bcl-2-related protein A1 (Mus musculus, UniProt Q07440); type: functional;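 further: confirmatory dose–response counterscreen on Bfl-1, used to check hits from a UBC13 polyubiquitin inhibitor campaign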
T4 sequence (Q07440 whole entry): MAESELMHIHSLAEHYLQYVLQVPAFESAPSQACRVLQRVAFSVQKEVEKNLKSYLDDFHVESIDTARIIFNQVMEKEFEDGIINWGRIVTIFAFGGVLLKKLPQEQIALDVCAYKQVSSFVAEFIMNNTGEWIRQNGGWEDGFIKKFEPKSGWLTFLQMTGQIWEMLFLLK

[9] = target: T5, Ubiquitin-conjugating enzyme E2 N (Homo sapiens, UniProt P61088); type: functional
T5 sequence (P61088 whole entry): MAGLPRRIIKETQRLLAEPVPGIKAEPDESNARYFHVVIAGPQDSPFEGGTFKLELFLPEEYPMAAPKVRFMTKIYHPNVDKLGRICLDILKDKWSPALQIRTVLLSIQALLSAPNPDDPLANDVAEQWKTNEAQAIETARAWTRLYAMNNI

[10] = target: T5, Ubiquitin-conjugating enzyme E2 N; type: functional; remark: listed apart in the source
Insulin-degrading enzyme = target: T6, Insulin-degrading enzyme (Homo sapiens, UniProt P14735); assay: Dose Response: Fluorescence polarization-based cell-based high throughput dose response assay for inhibitors of insulin-degrading enzyme (IDE). [Related pubchem assays: 434962 (Primary screen (IDE inhibitors in singlicate)), 449730 (Counterscreen (Cytotoxicity in triplicate)), 435028 (Confirmation (IDE inhibitors in triplicate)), 434984 (Summary …; type: functional
T6 sequence (P14735 whole entry): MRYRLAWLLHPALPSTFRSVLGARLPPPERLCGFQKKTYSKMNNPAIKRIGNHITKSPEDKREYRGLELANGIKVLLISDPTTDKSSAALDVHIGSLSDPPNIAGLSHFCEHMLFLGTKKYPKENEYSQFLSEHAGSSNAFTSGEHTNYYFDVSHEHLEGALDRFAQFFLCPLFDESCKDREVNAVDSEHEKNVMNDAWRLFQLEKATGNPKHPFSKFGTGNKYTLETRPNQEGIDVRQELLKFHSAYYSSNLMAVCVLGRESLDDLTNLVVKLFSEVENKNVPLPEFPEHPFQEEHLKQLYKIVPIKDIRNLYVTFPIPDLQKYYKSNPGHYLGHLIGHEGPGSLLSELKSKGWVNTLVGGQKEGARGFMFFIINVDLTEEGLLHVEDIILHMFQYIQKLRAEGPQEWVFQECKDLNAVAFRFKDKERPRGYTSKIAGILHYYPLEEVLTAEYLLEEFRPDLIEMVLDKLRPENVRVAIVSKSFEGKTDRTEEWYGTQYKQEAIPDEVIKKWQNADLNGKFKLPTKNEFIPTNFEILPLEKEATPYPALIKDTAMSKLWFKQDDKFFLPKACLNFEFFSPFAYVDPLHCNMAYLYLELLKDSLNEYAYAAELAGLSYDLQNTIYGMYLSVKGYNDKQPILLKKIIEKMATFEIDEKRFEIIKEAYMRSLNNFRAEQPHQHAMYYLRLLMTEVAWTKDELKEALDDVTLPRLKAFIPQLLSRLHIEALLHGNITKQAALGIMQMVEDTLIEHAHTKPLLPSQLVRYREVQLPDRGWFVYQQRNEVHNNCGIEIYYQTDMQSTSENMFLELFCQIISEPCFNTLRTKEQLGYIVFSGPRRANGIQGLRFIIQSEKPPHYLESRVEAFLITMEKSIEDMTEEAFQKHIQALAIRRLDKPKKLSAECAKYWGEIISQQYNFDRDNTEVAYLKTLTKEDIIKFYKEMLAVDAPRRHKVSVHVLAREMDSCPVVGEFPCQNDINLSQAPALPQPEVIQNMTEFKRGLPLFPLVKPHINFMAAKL

[11] = Counterscreen for IDE inhibitors: Luminescence-based cell-based high throughput dose response assay to identify compounds that are cytotoxic to HEK cells. [Related pubchem assays: 434962 (Primary screen (IDE inhibitors in singlicate)), 449730 (Counterscreen (Cytotoxicity in triplicate)), 435028 (Confirmation (IDE inhibitors in triplicate)) …; type: functional; settings: HEK293
[12] = target: G-protein coupled receptor 55 (Homo sapiens, UniProt Q9Y2T6); assay: GPR55 antagonists blocking LPI-driven arrestin recruitment, primary screen, imaging, U2OS, beta-arrestin-GFP, LPI agonist (AID 2013); type: functional;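 further: antagonist potency measured as reduced agonist-driven arrestin aggregation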
Cytochrome P450 2C9 = Cytochrome P450 2C9 (Homo sapiens, UniProt P11712); settings: Potency
Sequence of Cytochrome P450 2C9 (P11712 whole entry): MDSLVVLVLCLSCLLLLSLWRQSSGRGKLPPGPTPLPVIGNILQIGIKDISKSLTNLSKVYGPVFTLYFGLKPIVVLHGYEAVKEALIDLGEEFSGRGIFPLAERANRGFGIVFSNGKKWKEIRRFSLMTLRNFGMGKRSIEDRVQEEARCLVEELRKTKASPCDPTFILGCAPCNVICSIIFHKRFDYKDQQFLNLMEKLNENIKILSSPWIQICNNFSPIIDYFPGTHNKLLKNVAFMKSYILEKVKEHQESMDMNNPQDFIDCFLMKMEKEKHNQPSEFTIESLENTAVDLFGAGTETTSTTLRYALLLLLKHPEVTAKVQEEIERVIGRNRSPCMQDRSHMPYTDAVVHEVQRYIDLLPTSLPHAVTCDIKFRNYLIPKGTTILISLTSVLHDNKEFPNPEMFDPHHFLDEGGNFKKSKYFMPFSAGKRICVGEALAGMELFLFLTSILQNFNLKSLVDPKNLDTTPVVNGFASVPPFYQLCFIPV

T1 sequence (Q9UBE0 whole entry, the tested form may be a part): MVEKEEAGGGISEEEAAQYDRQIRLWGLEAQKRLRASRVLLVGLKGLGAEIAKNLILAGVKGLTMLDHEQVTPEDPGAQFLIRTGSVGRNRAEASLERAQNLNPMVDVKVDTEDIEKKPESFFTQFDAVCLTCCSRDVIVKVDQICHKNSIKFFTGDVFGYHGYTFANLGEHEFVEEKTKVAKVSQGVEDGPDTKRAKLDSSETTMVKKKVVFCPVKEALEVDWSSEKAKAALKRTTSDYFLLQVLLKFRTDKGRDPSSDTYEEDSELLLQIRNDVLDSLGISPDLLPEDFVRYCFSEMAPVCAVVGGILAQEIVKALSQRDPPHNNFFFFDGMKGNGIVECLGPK
T1 sequence (Q9UBT2 whole entry, the tested form may be a part): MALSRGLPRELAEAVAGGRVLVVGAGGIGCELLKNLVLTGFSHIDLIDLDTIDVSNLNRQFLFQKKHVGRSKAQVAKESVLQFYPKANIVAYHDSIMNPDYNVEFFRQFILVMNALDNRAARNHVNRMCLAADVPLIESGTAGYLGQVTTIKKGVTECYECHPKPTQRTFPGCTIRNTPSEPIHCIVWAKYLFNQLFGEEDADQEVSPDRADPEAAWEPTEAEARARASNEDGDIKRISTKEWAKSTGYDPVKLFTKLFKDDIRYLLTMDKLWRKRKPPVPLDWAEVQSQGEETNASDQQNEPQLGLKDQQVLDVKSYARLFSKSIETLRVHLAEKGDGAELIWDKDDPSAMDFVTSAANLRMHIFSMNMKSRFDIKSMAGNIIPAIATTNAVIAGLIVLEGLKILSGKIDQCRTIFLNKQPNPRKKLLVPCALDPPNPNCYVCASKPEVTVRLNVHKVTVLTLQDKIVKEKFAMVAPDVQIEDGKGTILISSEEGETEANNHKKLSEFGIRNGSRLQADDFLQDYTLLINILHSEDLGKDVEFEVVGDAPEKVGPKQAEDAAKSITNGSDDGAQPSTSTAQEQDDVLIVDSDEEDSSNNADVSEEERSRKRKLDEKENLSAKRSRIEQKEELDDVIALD
Sequence of G-protein coupled receptor 55 (Q9Y2T6 whole entry): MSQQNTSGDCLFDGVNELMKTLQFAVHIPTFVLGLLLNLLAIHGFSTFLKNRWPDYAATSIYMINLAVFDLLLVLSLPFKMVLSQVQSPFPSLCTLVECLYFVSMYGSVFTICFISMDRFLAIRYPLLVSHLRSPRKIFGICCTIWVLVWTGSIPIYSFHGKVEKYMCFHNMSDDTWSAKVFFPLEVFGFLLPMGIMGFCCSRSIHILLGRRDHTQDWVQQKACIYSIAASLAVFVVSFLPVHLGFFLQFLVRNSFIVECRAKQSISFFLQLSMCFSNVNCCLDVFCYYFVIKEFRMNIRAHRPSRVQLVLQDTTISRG
Sequence of FAD-linked sulfhydryl oxidase ALR (P55789 whole entry): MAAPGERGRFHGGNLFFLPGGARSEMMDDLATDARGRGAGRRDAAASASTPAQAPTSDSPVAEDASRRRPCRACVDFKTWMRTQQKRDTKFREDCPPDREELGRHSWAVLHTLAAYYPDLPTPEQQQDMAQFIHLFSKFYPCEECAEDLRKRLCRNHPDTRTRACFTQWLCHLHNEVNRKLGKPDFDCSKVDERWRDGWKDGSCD

With CCOC(=O)C1=C(C)N=c2s/c(=C\c3ccc(OCC(=O)O)cc3)c(=O)n2C1c1ccc(OC(C)C)cc1 (configuration not stated) the IC50 (SUMO-activating enzyme [1]) was 10.1 µM (active), the IC50 [2] was 35.2 µM (active) and the IC50 (SUMO-activating enzyme [3]) was 26 µM (active).

With O=C(O)c1ccccc1NC(=O)c1ccccc1Nc1ccccc1 the IC50 [4] was 5.46 µM (active), the AC50 [5] was 9.47 µM (active) and the EC50 [6] was > 53 µM (inactive). The IC50 [2] was > 50 µM (active), the AC50 [7] was > 100 µM (inactive) and the IC50 [8] was > 20 µM (inactive).

For O=C(CCNC(=O)c1ccccc1Cl)Nc1nc2ccccc2s1, the IC50 (Bcl-2-related protein A1) was > 20 µM (inactive), the IC50 [9] was 6.15 µM (active) and the IC50 [10] was 8.02 µM (active).

In the case of COc1ccccc1N1CCN(C(=O)c2cc(N3C(=O)C4C5CCC(C5)C4C3=O)ccc2Cl)CC1 (configuration not stated), the IC50 (Insulin-degrading enzyme) is reported as > 55.9 µM (not active) and the IC50 [11] is reported as 27.8 µM (not active).

With O=C(/C=C/c1ccco1)NC(=S)Nc1ccccc1N1CCOCC1 the IC50 [12] was 4.57 µM (active).

In the case of CC(C)C[C@@H](CC(=O)N[C@H](CC(=O)N[C@@H]1CCNC[C@H]1C(=O)N[C@H](CC(=O)N[C@@H](CCC(=O)O)CC(=O)O)Cc1c[nH]c2ccccc12)C(C)C)NC(=O)[C@@H]1CCCC[C@H]1N, the AC50 (Cytochrome P450 2C9) is reported as 25.1 µM (inconclusive).

For CC12CNCC(C)(CN(C(c3ccccc3)c3ccccc3)C1)C2, the IC50 [12] was 5.62 µM (active).
